{"source": "ChEMBL document CHEMBL1145958", "about": "“Furoyl and benzofuroyl pyrroloquinolones as potent and selective PDE5 inhibitors for treatment of erectile dysfunction” (J Med Chem, 2003)", "key": {"[1]": {"target": "T1, cGMP-specific 3',5'-cyclic phosphodiesterase (Homo sapiens, UniProt O76074)", "assay": "Inhibitory activity against Phosphodiesterase 5 (PDE5) was evaluated"}, "[2]": {"assay": "Selective inhibition of PDE5 versus PDE6 in retinal rod"}, "[3]": {"assay": "Selective inhibition of PDE5 versus PDE6 in retinal cone"}, "Canis familiaris [4]": {"species": "Canis familiaris", "assay": "Dose required for potentiated ICP increase in dogs", "type": "functional, Canis lupus familiaris"}, "Canis familiaris [5]": {"species": "Canis familiaris", "assay": "Effective dose in dogs", "type": "functional", "details": "Canis lupus familiaris"}, "[6]": {"target": "T1, cGMP-specific 3',5'-cyclic phosphodiesterase", "assay": "Inhibition of PDE5"}}}
{"smiles": "O=C(c1ccc(-c2ccc(O)cc2)o1)N1Cc2c(nc3ccccc3c2O)C1c1ccc2c(c1)OCO2", "note": "(stereo not drawn)", "values": [{"measurement": "Ki", "setting": "[1]", "value": 0.73, "unit": "nM"}]}
{"smiles": "O=C(O)c1ccc(-c2ccc(C(=O)N3Cc4c(nc5ccccc5c4O)C3c3ccc4c(c3)OCO4)o2)cc1", "note": "(stereo not drawn)", "values": [{"measurement": "Ki", "setting": "[1]", "value": 1.01, "unit": "nM"}]}
{"smiles": "O=C(c1ccc(-c2ccsc2)o1)N1Cc2c(nc3ccccc3c2O)C1c1ccc2c(c1)OCO2", "note": "(stereo not drawn)", "values": [{"measurement": "Ki", "setting": "[1]", "value": 0.71, "unit": "nM"}]}
{"smiles": "O=C(c1ccc(-c2ccncc2)o1)N1Cc2c(nc3ccccc3c2O)C1c1ccc2c(c1)OCO2", "note": "(stereo not drawn)", "values": [{"measurement": "Ratio", "setting": "[2]", "value": 23}, {"measurement": "Ki", "setting": "[1]", "value": 0.31, "unit": "nM"}, {"measurement": "Ratio", "setting": "[3]", "value": 34}]}
{"smiles": "O=C(c1cc2ccc(O)cc2o1)N1Cc2c(nc3ccccc3c2O)C1c1ccc2c(c1)OCO2", "note": "(stereo not drawn)", "values": [{"measurement": "Ratio", "setting": "[2]", "value": 31}, {"measurement": "Ki", "setting": "[1]", "value": 0.35, "unit": "nM"}, {"measurement": "Ratio", "setting": "[3]", "value": 29}]}
{"smiles": "CN1CCN(C(=O)c2ccc(-c3ccc(C(=O)N4Cc5c(nc6ccccc6c5O)C4c4ccc5c(c4)CCO5)o3)cc2)CC1", "note": "(stereo not drawn)", "values": [{"measurement": "Ratio", "setting": "[2]", "value": 13}, {"measurement": "Ratio", "setting": "[3]", "value": 12}]}
{"smiles": "CN1CCN(C(=O)c2ccc(-c3ccc(C(=O)N4Cc5c(nc6ccccc6c5O)C4c4ccc5c(c4)OCO5)o3)cc2)CC1", "note": "(racemic) [listing 1 of 2 here]", "values": [{"measurement": "Ki", "setting": "[1]", "value": 1.82, "unit": "nM"}]}
{"smiles": "O=C(c1ccc(-c2cccnc2)o1)N1Cc2c(nc3ccccc3c2O)C1c1ccc2c(c1)OCO2", "note": "(stereo not drawn)", "values": [{"measurement": "Ratio", "setting": "[2]", "value": 144}, {"measurement": "Ki", "setting": "[1]", "value": 0.15, "unit": "nM"}, {"measurement": "Ratio", "setting": "[3]", "value": 108}]}
{"smiles": "Cc1ccc(-c2ccc(C(=O)N3Cc4c(nc5ccccc5c4O)C3c3ccc4c(c3)OCO4)o2)cc1", "note": "(stereo not drawn)", "values": [{"measurement": "Ki", "setting": "[1]", "value": 2.64, "unit": "nM"}]}
{"smiles": "O=C(c1ccc(-c2ccc(CO)cc2)o1)N1Cc2c(nc3ccccc3c2O)C1c1ccc2c(c1)OCO2", "note": "(stereo not drawn)", "values": [{"measurement": "Ki", "setting": "[1]", "value": 0.61, "unit": "nM"}]}
{"smiles": "CN1CCN(C(=O)c2ccc(-c3ccc(C(=O)N4Cc5c(nc6ccccc6c5O)C4c4ccc5c(c4)OCO5)o3)cc2)CC1", "note": "(racemic) [listing 2 of 2 here]", "values": [{"measurement": "Ratio", "setting": "[2]", "value": 2}, {"measurement": "Ratio", "setting": "[3]", "value": 2}]}
{"smiles": "O=C(c1ccc(Br)o1)N1Cc2c(nc3ccccc3c2O)C1c1ccc2c(c1)OCO2", "note": "(stereo not drawn)", "values": [{"measurement": "Ki", "setting": "[1]", "value": 2.07, "unit": "nM"}]}
{"smiles": "N#Cc1ccc(-c2ccc(C(=O)N3Cc4c(nc5ccccc5c4O)C3c3ccc4c(c3)OCO4)o2)cc1", "note": "(stereo not drawn)", "values": [{"measurement": "Ki", "setting": "[1]", "value": 2.71, "unit": "nM"}]}
{"smiles": "CN1CCN(C(=O)c2ccc(-c3ccc(C(=O)N4Cc5c(nc6ccccc6c5O)C4c4ccc5c(c4)OCO5)o3)cc2)CC1", "note": "(single isomer, unassigned; (-)) [listing 1 of 2 here]", "values": [{"measurement": "Ki", "setting": "[1]", "value": 0.2, "unit": "nM"}]}
{"smiles": "O=C(c1ccc(-c2ccco2)o1)N1Cc2c(nc3ccccc3c2O)C1c1ccc2c(c1)OCO2", "note": "(stereo not drawn)", "values": [{"measurement": "Ki", "setting": "[1]", "value": 4.66, "unit": "nM"}]}
{"smiles": "O=C(c1cc2ccc(O)cc2o1)N1Cc2c(nc3ccccc3c2O)C1c1ccc2c(c1)CCO2", "note": "(stereo not drawn)", "values": [{"measurement": "Ratio", "setting": "[2]", "value": 291}, {"measurement": "Ki", "setting": "[1]", "value": 1.74, "unit": "nM"}, {"measurement": "Ratio", "setting": "[3]", "value": 646}]}
{"smiles": "O=C(c1ccc(-c2ccc([N+](=O)[O-])cc2)o1)N1Cc2c(nc3ccccc3c2O)C1c1ccc2c(c1)OCO2", "note": "(stereo not drawn)", "values": [{"measurement": "Ki", "setting": "[1]", "value": 0.61, "unit": "nM"}]}
{"smiles": "O=C(c1ccccc1)N1Cc2c(nc3ccccc3c2O)C1c1ccc2c(c1)OCO2", "note": "(stereo not drawn)", "values": [{"measurement": "Ki", "setting": "[1]", "value": 2.49, "unit": "nM"}]}
{"smiles": "CN1CCN(C(=O)c2ccc(-c3ccc(C(=O)N4Cc5c(nc6ccccc6c5O)C4c4ccc5c(c4)OCO5)o3)cc2)CC1", "note": "(single isomer, unassigned; (-)) [listing 2 of 2 here]", "values": [{"measurement": "Ratio", "setting": "[2]", "value": 13}, {"measurement": "Ratio", "setting": "[3]", "value": 13.2}]}
{"smiles": "COC(=O)c1ccc(-c2ccc(C(=O)N3Cc4c(nc5ccccc5c4O)C3c3ccc4c(c3)OCO4)o2)cc1", "note": "(stereo not drawn)", "values": [{"measurement": "Ki", "setting": "[1]", "value": 0.99, "unit": "nM"}]}
{"smiles": "O=C(c1ccc(-c2cccc(C(F)(F)F)c2)o1)N1Cc2c(nc3ccccc3c2O)C1c1ccc2c(c1)OCO2", "note": "(stereo not drawn)", "values": [{"measurement": "Ki", "setting": "[1]", "value": 0.98, "unit": "nM"}]}
{"smiles": "COc1ccc(-c2ccc(C(=O)N3Cc4c(nc5ccccc5c4O)C3c3ccc4c(c3)OCO4)o2)cc1", "note": "(stereo not drawn)", "values": [{"measurement": "Ki", "setting": "[1]", "value": 1.71, "unit": "nM"}]}
{"smiles": "O=C(c1ccc(-c2cccc(CO)c2)o1)N1Cc2c(nc3ccccc3c2O)C1c1ccc2c(c1)OCO2", "note": "(stereo not drawn)", "values": [{"measurement": "Ki", "setting": "[1]", "value": 0.47, "unit": "nM"}]}
{"smiles": "O=C(c1ccc(-c2ccccc2)o1)N1Cc2c(nc3ccccc3c2O)C1c1ccc2c(c1)OCO2", "note": "(stereo not drawn)", "values": [{"measurement": "Ki", "setting": "[1]", "value": 2.09, "unit": "nM"}]}
{"smiles": "CS(=O)(=O)Nc1ccc(-c2ccc(C(=O)N3Cc4c(nc5ccccc5c4O)C3c3ccc4c(c3)OCO4)o2)cc1", "note": "(stereo not drawn)", "values": [{"measurement": "Dose", "setting": "Canis familiaris [4]", "value": 0.3, "unit": "mg/kg"}, {"measurement": "Ki", "setting": "[1]", "value": 0.24, "unit": "nM"}, {"measurement": "ED50", "setting": "Canis familiaris [5]", "value": 0.284, "unit": "mg/kg"}]}
{"smiles": "O=C(c1ccc(-c2cccc([N+](=O)[O-])c2)o1)N1Cc2c(nc3ccccc3c2O)C1c1ccc2c(c1)OCO2", "note": "(stereo not drawn)", "values": [{"measurement": "Ki", "setting": "[1]", "value": 1.3, "unit": "nM"}]}
{"smiles": "O=Cc1ccc(-c2ccc(C(=O)N3Cc4c(nc5ccccc5c4O)C3c3ccc4c(c3)OCO4)o2)cc1", "note": "(stereo not drawn)", "values": [{"measurement": "Ki", "setting": "[6]", "value": 2.59, "unit": "nM"}]}
{"smiles": "CN(C)c1ccc(-c2ccc(C(=O)N3Cc4c(nc5ccccc5c4O)C3c3ccc4c(c3)OCO4)o2)cc1", "note": "(stereo not drawn)", "values": [{"measurement": "Ki", "setting": "[1]", "value": 3.74, "unit": "nM"}]}
{"smiles": "O=C(c1ccc(-c2ccc(OCCN3CCCC3)cc2)o1)N1Cc2c(nc3ccccc3c2O)C1c1ccc2c(c1)OCO2", "note": "(stereo not drawn)", "values": [{"measurement": "Ki", "setting": "[1]", "value": 0.76, "unit": "nM"}]}
{"smiles": "O=C(c1ccc(-c2cccnc2)o1)N1Cc2c(nc3ccccc3c2O)C1c1ccc2c(c1)CCO2", "note": "(stereo not drawn)", "values": [{"measurement": "Ki", "setting": "[1]", "value": 0.53, "unit": "nM"}]}
